From ChEMBL document CHEMBL1201862, “PubChem BioAssay data set” (2004) come the findings set out here.

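Five compound concentrations were applied to cells in 96-well plates for 48 hours; endpoints were derived by simple linear interpolation of the resulting dose-response curve. GI50 marks 50% less growth.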 Calls of active or inactive are those of the source. No stated cut-off is given here; in the data, active = GI50 up to about 1.1 µM and inactive = higher. Where only a bound is given, the exact number is not on record here.

Some test systems named below: A498; ACHN; DU-145; HCT-15; HL-60; KM12; M14; NCI-H460; PC-3; RPMI-8226; SF-268; SNB-19; SNB-75; SR; T47D; COLO 205; OVCAR-4; SK-OV-3; UACC-62; UO-31.
Holding throughout (test): growth of human tumour cells (NCI), 48 h

With `CCN(CC)CC[n+]1ccc2c(C)c3[nH]c4ccccc4c3c(C)c2c1`, the GI50 with A498 is 3.04 µM (inactive); with ACHN it was 5 µM (inactive); with DU-145, 0.422 µM (active); in the assay on HCT-15, 22 µM; in the assay on HL-60, 0.168 µM (active); in the assay on KM12 it was 0.338 µM (active). Further, the GI50 was 0.923 µM (active) with M14; 0.251 µM (active) in the assay with NCI-H460; 0.553 µM (active) with PC-3; 0.367 µM (active) in the assay on RPMI-8226; 0.164 µM (active) with SF-268; 0.144 µM (active) in the assay with SNB-19. In addition, the GI50 was 0.276 µM (active) in the assay on SNB-75, 0.608 µM (active) in the assay on SR and 0.188 µM (active) in the assay with T47D.
`N#CC(c1ccc(O)cc1)N1CCN(C(C#N)c2ccc(O)cc2)CC1` (centres undefined): the GI50 with A498 is > 100 µM (inactive); in the assay with ACHN, > 100 µM (inactive); in the assay with COLO 205 it was > 100 µM (inactive); in the assay on DU-145 it was > 51.8 µM (inactive); in the assay on HCT-15 it was 97.3 µM; in the assay on HL-60, > 100 µM (inactive). For the same molecule, the GI50 in the assay with KM12 was > 100 µM (inactive); in the assay with M14, > 100 µM (inactive); with OVCAR-4, > 100 µM (inactive); in the assay with PC-3, > 100 µM (inactive); in the assay on RPMI-8226 it was > 100 µM (inactive); in the assay with SF-268, 24.5 µM (inactive). Also, the GI50 is 28.6 µM (inactive) in the assay on SK-OV-3; 24.9 µM (inactive) with SNB-19; 19 µM (inactive) in the assay on SNB-75; > 100 µM (inactive) in the assay with SR; 39.5 µM (inactive) in the assay on T47D; 64.1 µM (inactive) in the assay on UACC-62. For the same molecule, the GI50 with UO-31 is > 100 µM (inactive).
Turning to `CC(=O)OCC1OC(NC(=S)Nn2c(=O)[nH]c3ccccc3c2=O)C(OC(C)=O)C(OC(C)=O)C1OC(C)=O` (centres undefined), the GI50 with A498 is > 100 µM (inactive); in the assay with ACHN, > 100 µM (inactive); in the assay on COLO 205, > 100 µM (inactive); in the assay on DU-145 it was > 100 µM (inactive); in the assay with HCT-15 it was over 100 µM; in the assay with HL-60, 57.4 µM (inactive). The GI50 with KM12, in the assay on M14, in the assay with NCI-H460, with PC-3, in the assay on RPMI-8226 and in the assay on SF-268 was > 100 µM (inactive) each time. The GI50 in the assay with SK-OV-3 was > 100 µM (inactive); with SNB-19, > 100 µM (inactive); with SNB-75, > 100 µM (inactive); with SR, 64.9 µM (inactive); with T47D, > 100 µM (inactive); in the assay on UACC-62, > 100 µM (inactive). The GI50 in the assay on UO-31 is > 100 µM (inactive).
As for `c1ncn(C23C4C5C6C4C2C6C53)n1` (centres undefined), the GI50 was > 100 µM (inactive) with A498; > 100 µM (inactive) in the assay on ACHN; > 100 µM (inactive) with COLO 205; > 100 µM (inactive) with DU-145; over 100 µM in the assay on HCT-15; > 100 µM (inactive) in the assay on HL-60. Besides, the GI50 in the assay on KM12, in the assay with NCI-H460, with PC-3, with RPMI-8226, in the assay on SF-268 and in the assay on SK-OV-3 was > 100 µM (inactive) each time. For the same molecule, the GI50 in the assay with SNB-19, in the assay with SNB-75, in the assay with SR and in the assay with T47D was > 100 µM (inactive) throughout.
On to `O=C1N[C@H]2c3c(Cl)sc(Cl)c3/C(=N/O)[C@H]2O1`, for which the GI50 in the assay with A498 was > 100 µM (inactive); in the assay with ACHN, > 100 µM (inactive); in the assay with COLO 205, > 100 µM (inactive); with DU-145 it was > 100 µM (inactive); in the assay on HCT-15, 67.9 µM; in the assay with HL-60 it was 18.7 µM (inactive). In addition, the GI50 in the assay with KM12 was > 100 µM (inactive); in the assay with M14 it was > 100 µM (inactive); in the assay with NCI-H460 it was 76.4 µM (inactive); in the assay with PC-3 it was > 100 µM (inactive); in the assay on RPMI-8226 it was > 100 µM (inactive); in the assay with SF-268 it was > 100 µM (inactive). For the same molecule, the GI50 in the assay with SK-OV-3, in the assay on SNB-19, in the assay on SNB-75, in the assay with SR, in the assay on T47D and in the assay with UACC-62 was > 100 µM (inactive) each time. For the same molecule, in the assay with UO-31, the GI50 is > 100 µM (inactive).
As to `COc1ccc(N/N=C2\CCOc3ccc(C)cc3C2=O)cc1`, the GI50 in the assay with A498 was 59.8 µM (inactive); with ACHN, 12.4 µM (inactive); in the assay on COLO 205 it was 23.4 µM (inactive); in the assay with DU-145, 51.3 µM (inactive); in the assay with HCT-15 it was 5.52 µM; with HL-60, 11.9 µM (inactive). In addition, the GI50 with KM12 is 5.08 µM (inactive); in the assay with M14, 26.9 µM (inactive); in the assay on NCI-H460, 13.7 µM (inactive); in the assay on OVCAR-4, 14.5 µM (inactive); with PC-3 it was 10.6 µM (inactive); with RPMI-8226, 25.5 µM (inactive). In addition, the GI50 was 35.5 µM (inactive) in the assay on SF-268; 18.2 µM (inactive) in the assay on SK-OV-3; 39.7 µM (inactive) in the assay with SNB-19; 15.6 µM (inactive) with SR; 2.14 µM (inactive) with T47D; 6.81 µM (inactive) with UACC-62. In addition, in the assay on UO-31, the GI50 was 24 µM (inactive).
Regarding `CN1Cc2ccccc2S(=O)(=O)n2cccc2C1=O`, the GI50 was > 100 µM (inactive) in the assay with A498; > 100 µM (inactive) in the assay on ACHN; > 100 µM (inactive) with COLO 205; > 100 µM (inactive) in the assay on DU-145; over 100 µM in the assay with HCT-15; > 100 µM (inactive) in the assay on HL-60. For the same molecule, the GI50 in the assay on KM12, in the assay on NCI-H460, in the assay on OVCAR-4, in the assay on PC-3, in the assay with RPMI-8226 and in the assay on SK-OV-3 was > 100 µM (inactive) throughout. For the same molecule, the GI50 is > 100 µM (inactive) with SNB-75; 8.41 µM (inactive) with SR; 32.8 µM (inactive) in the assay on T47D; > 100 µM (inactive) in the assay on UACC-62; > 100 µM (inactive) with UO-31.
`CCOC(=O)c1c(N2CCCC2)[nH]c(=O)c(C(c2c(O)c(C(=O)OCC)c(N3CCCC3)[nH]c2=O)C(C)C)c1O`: the GI50 was > 100 µM (inactive) in the assay on A498; > 100 µM (inactive) in the assay with ACHN; > 100 µM (inactive) in the assay on COLO 205; > 100 µM (inactive) with DU-145; over 100 µM with HCT-15; > 100 µM (inactive) in the assay with KM12. The GI50 in the assay on M14 is > 100 µM (inactive); with NCI-H460 it was > 100 µM (inactive); in the assay with OVCAR-4, > 100 µM (inactive); in the assay with PC-3, 33.6 µM (inactive); with RPMI-8226, > 100 µM (inactive); with SF-268, 72.4 µM (inactive). The GI50 with SK-OV-3 was > 100 µM (inactive); in the assay on SNB-19, 70.6 µM (inactive); in the assay with SNB-75, 25.3 µM (inactive); in the assay with SR, 37.5 µM (inactive); in the assay with T47D, > 100 µM (inactive); with UACC-62, > 100 µM (inactive). Moreover, the GI50 in the assay on UO-31 was > 100 µM (inactive).
Take `CC(C)[C@H]1NC(=O)[C@H]2N=C(S[C@H]2C)[C@@H]2CCCN2C(=O)[C@H](Cc2ccccc2)NC(=O)[C@@H]2CSC(=N2)[C@@H](Cc2ccccc2)NC(=O)[C@@H]2CSC1=N2`: the GI50 in the assay on A498 was 19.2 µM (inactive); with ACHN, 25.4 µM (inactive); in the assay with COLO 205, 16.1 µM (inactive); in the assay with DU-145, > 50 µM (inactive); in the assay on HCT-15, 25.3 µM; in the assay with HL-60 it was 0.0912 µM (active). The GI50 in the assay on KM12 was 12.3 µM (inactive); in the assay with M14 it was 25.7 µM (inactive); with OVCAR-4, 10.9 µM (inactive); with PC-3, 14.6 µM (inactive); in the assay on RPMI-8226 it was 7.62 µM (inactive); in the assay on SF-268 it was 45.6 µM (inactive). For the same molecule, the GI50 was 35.5 µM (inactive) with SK-OV-3; 24.2 µM (inactive) with SNB-19; 5.65 µM (inactive) in the assay with SR; 35 µM (inactive) with T47D; 29.6 µM (inactive) with UACC-62; 21.8 µM (inactive) in the assay with UO-31.
With `O=C(CC(O)(C(F)(F)F)C(F)(F)F)C(c1ccccc1)C(O)(C(F)(F)F)C(F)(F)F` (centres undefined), the GI50 was 13.9 µM (inactive) in the assay on A498; 17.4 µM (inactive) in the assay with ACHN; 11.4 µM (inactive) with COLO 205; 26.1 µM (inactive) with DU-145; 9.53 µM in the assay on HCT-15; 9.71 µM (inactive) with HL-60. Also, the GI50 in the assay on KM12 was 8.55 µM (inactive); in the assay on M14 it was 41.2 µM (inactive); with NCI-H460, 6.08 µM (inactive); in the assay with OVCAR-4 it was > 100 µM (inactive); in the assay with PC-3, 4.15 µM (inactive); in the assay on RPMI-8226, 5.33 µM (inactive). The GI50 is 5.92 µM (inactive) in the assay with SK-OV-3; 18.3 µM (inactive) with SNB-19; 1.93 µM (inactive) in the assay with SNB-75; 9.31 µM (inactive) in the assay on SR; 13.1 µM (inactive) in the assay on T47D; 20.5 µM (inactive) in the assay on UACC-62. Further, the GI50 in the assay on UO-31 was 10.3 µM (inactive).
`C=C(CBr)CCCOCc1ccccc1`: the GI50 in the assay on A498 is 35.2 µM (inactive); in the assay on ACHN it was 14.1 µM (inactive); with COLO 205, 27.6 µM (inactive); with DU-145, 39.1 µM (inactive); with HCT-15, 22 µM; in the assay on HL-60, 23.5 µM (inactive). Moreover, the GI50 in the assay on KM12 is 18.9 µM (inactive); in the assay on M14, 16.7 µM (inactive); in the assay on NCI-H460, 18.1 µM (inactive); with OVCAR-4, 17.6 µM (inactive); in the assay on PC-3, 19.7 µM (inactive); in the assay on RPMI-8226, 29.7 µM (inactive). In addition, the GI50 in the assay on SF-268 was 15.8 µM (inactive); in the assay on SK-OV-3 it was 35.5 µM (inactive); in the assay on SNB-19, 15.6 µM (inactive); in the assay with SR, 31.3 µM (inactive); in the assay on T47D, 37.8 µM (inactive); in the assay on UACC-62, 18.7 µM (inactive). The GI50 with UO-31 is 13.7 µM (inactive).
